In brackets after ≈: the same amount, converted by molar mass.
Columns and labels:
[1] = tested on: MCF-7 (breast adenocarcinoma); assay: SRB cancer cell growth assay, MCF-7; format: cell-based, human; parameters: key to activity class MCF-7: highly active; b: moderately active; weakly active; conditions: for IC50: Homo sapiens, MCF7, MCF-7, 48 h exposure, SRB, read-out: IC50 (μg/mL) MCF-7
Protocol: (§1) The in vitro cytotoxic activity the newly synthesized compounds against human breast cell line (MCF7), non-small cell lung cancer NCI-H460, CNS cancer SF-268 and WI 38 (normal fibroblast cells) were evaluated using doxorubicin as the reference drug, according to the method reported by Skehan et al..
(§2) The newly synthesized compounds were evaluated in vitro against three human cancer cell lines; which are MCF-7 (breast adenocarcinoma), NCI-H460 (non-small cell lung cancer) and SF-268 (CNS cancer), and WI 38 (normal fibroblast cells) were used in this study. MCF-7 was obtained from the European Collection of Cell Cultures (ECACC, Salisbury, UK) but NCI-H460, SF-268 and WI 38 were kindly provided by the National Cancer Institute (NCI, Cairo, Egypt). They grow as monolayers routinely maintained in RPMI-1640 medium supplemented with 5% heat inactivated fetal bovine serum (FBS), 2 mM glutamine and antibiotics (penicillin 100 U/mL, streptomycin 100 µg/mL), at 37 °C in a humidified atmosphere containing 5% CO2. Exponentially growing cells were obtained by plating 1.5 × 10^5 cells/mL for MCF-7 and SF-268, and 0.75 × 10^4 cells/mL for NCI-H460 followed by 24 h of incubation. The effect of the vehicle solvent (DMSO) on the growth of these cell lines was evaluated in all experiments by exposing untreated control cells to the maximum concentration (0.5%) of DMSO used in each assay.
(§3) The effect of compounds on the in vitro growth of human tumor cell lines were evaluated according to the procedure adopted by the National Cancer Institute (NCI, […], USA) in the “In vitro Anticancer Drug Discovery Screen” that uses the protein-binding dye sulforhodamine B (SRB) to assess cell growth. In the assay protocol, all cells were incubated at 37 °C under humidified atmosphere containing 5% CO2. Briefly, exponentially cells growing in 96-well plates were then exposed for 48 h to five serial concentrations of each compound, starting from a maximum concentration of 150 μg/mL. Following this exposure period, adherent cells were fixed, washed and stained. The bound stain was solubilized and the absorbance was measured at 492 nm in a Power Wave XS plate reader (Bio-Tek Instruments Inc., Winston, NC, USA). For each test compound and cell line, a dose response curve was obtained and the inhibitory concentration of 50% (IC50), corresponding to the concentration of the compounds that inhibited 50% of the net cell growth was calculated as described elsewhere. Doxorubicin was used as a positive control and tested in the same manner.

[2] = tested on: NCI-H460 (non-small cell lung cancer); assay: SRB cancer cell growth assay, NCI-H460; format: cell-based, human; parameters: key to activity class NCI-H460: highly active; b: moderately active; weakly active; conditions: for IC50: Homo sapiens, NCI-H460, 48 h exposure, SRB, read-out: IC50 (μg/mL) NCI-H460
Protocol: as §1, §2, §3

SF-268 (CNS cancer) = assay: SRB cancer cell growth assay, SF-268; format: cell-based, human; parameters: key to activity class SF-268: highly active; b: moderately active; weakly active; conditions: for IC50: Homo sapiens, SF-268, 48 h exposure, SRB, read-out: IC50 (μg/mL) SF-268
Protocol: as §1, §2, §3

[3] = tested on: WI 38 (normal fibroblast cells); assay: SRB cell growth assay, normal cells WI 38; format: cell-based, human; conditions: Homo sapiens, 48 h exposure, non-cytotoxic = IC50 > 100 μg/mL
Protocol: as §1, §2, §3

IC50 [1] [µg/mL] | IC50 [2] [µg/mL] | IC50 (SF-268 (CNS cancer)) [µg/mL] | melting point [°C] | SMILES | activity class MCF-7 [1] | activity class NCI-H460 [2] | activity class SF-268 (SF-268 (CNS cancer)) | IC50 [3] [µg/mL]
67 ± 6.23 (≈ 180 µM) | 56.8 ± 8.2 (≈ 152 µM) | 69 ± 9.15 (≈ 185 µM) | 309 to 311 | Nc1nnc2[nH]c(-c3ccc(Cl)cc3Cl)cc(-c3ccc(F)cc3)c1-2 [Compound 4, 6-(2,4-Dichlorophenyl)-4-(4-fluorophenyl)-7H-pyrazolo[3,4-b]pyridin-3-amine] | c | c | c | 18.6 ± 1.21 (≈ 49.9 µM)
2.41 ± 1.24 (≈ 5.59 µM) | 2.3 ± 2.86 (≈ 5.33 µM) | 0.46 ± 0.06 (≈ 1.07 µM) | 197 to 199 | N#Cc1c(-c2ccc(F)cc2)cc(-c2ccc(Cl)cc2Cl)nc1OCC(=O)NN [Compound 9, 2-[3-Cyano-6-(2,4-dichlorophenyl)-4-(4-fluorophenyl)pyridin-2-yloxy]acetohydrazide] | a | a | a | 62.2 ± 2.02 (≈ 144 µM)

Source: PMC6272992, “Synthesis and Cytotoxic Effect of Some Novel 1,2-Dihydropyridin-3-carbonitrile and Nicotinonitrile Derivatives” (Molecules, 2015)
